Data published in ChEMBL document CHEMBL5523729, “Development of Degraders of Cyclin-Dependent Kinases 4 and 6 Based on Rational Drug Design” (J Med Chem, 2024).
Calls of active or inactive are those of the source. No cut-off for these calls is given here.

Tests used:
[1] = biological target: T1, Protein cereblon/Cyclin-dependent kinase 4 (Homo sapiens, UniProt P11802+Q96SW2); test: PROTAC activity at CDK4/CRBN in human Jurkat cells assessed as protein degradation by Western blot analysis; assay type: cell-based
Target sequence in this assay (P11802 whole entry): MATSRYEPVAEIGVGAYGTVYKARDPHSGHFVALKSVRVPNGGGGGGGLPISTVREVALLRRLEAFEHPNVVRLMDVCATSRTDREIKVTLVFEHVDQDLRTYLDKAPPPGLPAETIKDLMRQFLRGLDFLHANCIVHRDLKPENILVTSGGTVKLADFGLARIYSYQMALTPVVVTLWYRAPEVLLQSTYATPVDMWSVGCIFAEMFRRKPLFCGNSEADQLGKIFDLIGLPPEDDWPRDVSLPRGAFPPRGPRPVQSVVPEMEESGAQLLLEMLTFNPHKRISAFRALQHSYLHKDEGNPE
Target sequence in this assay (Q96SW2 whole entry): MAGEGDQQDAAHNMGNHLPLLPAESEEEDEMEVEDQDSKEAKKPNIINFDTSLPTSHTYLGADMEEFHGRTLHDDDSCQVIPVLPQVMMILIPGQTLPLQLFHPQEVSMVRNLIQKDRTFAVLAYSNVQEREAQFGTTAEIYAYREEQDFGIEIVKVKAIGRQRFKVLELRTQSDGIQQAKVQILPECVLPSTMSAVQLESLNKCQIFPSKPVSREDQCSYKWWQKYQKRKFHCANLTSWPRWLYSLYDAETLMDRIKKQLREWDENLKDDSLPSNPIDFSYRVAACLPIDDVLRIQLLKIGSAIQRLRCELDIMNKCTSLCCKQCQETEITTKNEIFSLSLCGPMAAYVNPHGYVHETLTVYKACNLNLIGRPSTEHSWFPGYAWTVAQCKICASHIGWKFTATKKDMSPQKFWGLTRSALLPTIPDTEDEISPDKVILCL

[2] = biological target: T2, Protein cereblon/Cyclin-dependent kinase 6 (Homo sapiens, UniProt Q00534+Q96SW2); test: PROTAC activity at CDK6/CRBN in human Jurkat cells assessed as protein degradation by Western blot analysis; assay type: cell-based
Target sequence in this assay (Q00534 whole entry): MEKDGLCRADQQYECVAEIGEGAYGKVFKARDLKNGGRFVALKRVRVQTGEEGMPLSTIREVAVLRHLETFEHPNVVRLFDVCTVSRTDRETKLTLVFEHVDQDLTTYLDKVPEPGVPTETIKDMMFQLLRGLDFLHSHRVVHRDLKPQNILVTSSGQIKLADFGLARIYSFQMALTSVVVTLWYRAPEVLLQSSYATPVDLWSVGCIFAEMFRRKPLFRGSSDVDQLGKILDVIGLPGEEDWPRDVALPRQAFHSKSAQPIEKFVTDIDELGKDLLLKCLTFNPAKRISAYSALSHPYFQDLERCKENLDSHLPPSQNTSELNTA
Target sequence in this assay (Q96SW2 whole entry): as the sequence (Q96SW2 whole entry) above

[3] = biological target: T1, Protein cereblon/Cyclin-dependent kinase 4; test: PROTAC activity at CDK4/CRBN in human Jurkat cells assessed as maximal protein degradation by Western blot analysis relative to control; assay type: cell-based
Target sequence in this assay (P11802 2-303 limits assumed): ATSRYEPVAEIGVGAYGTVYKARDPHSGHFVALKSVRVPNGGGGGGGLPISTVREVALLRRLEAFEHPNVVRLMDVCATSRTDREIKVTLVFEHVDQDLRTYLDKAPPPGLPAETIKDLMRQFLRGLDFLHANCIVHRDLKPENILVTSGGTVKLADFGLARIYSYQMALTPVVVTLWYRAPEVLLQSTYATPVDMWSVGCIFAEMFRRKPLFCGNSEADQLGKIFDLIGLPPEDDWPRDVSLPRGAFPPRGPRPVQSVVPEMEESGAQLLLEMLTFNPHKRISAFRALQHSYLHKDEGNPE
Target sequence in this assay (Q96SW2 whole entry partner): as the sequence (Q96SW2 whole entry) above

[4] = biological target: T2, Protein cereblon/Cyclin-dependent kinase 6; test: PROTAC activity at CDK6/CRBN in human Jurkat cells assessed as maximal protein degradation by Western blot analysis relative to control; assay type: cell-based
Target sequence in this assay (Q00534 whole entry, looked up): as the sequence (Q00534 whole entry) above
Target sequence in this assay (Q96SW2 whole entry, looked up): as the sequence (Q96SW2 whole entry) above

[5] = biological target: Cyclin-dependent kinase 6 (Homo sapiens, UniProt Q00534); test: Inhibition of CDK6 (unknown origin)
[6] = biological target: Cyclin-dependent kinase 4 (Homo sapiens, UniProt P11802); test: Inhibition of CDK4 (unknown origin)
Jurkat [7] = test: Anti-proliferative activity against human Jurkat cells assessed as cell growth inhibition measured after 72 hrs by CCK8 assay; assay type: functional, cell-based
Jurkat [8] = test: Cell cycle arrest in human Jurkat cells assessed as accumulation of cells at G1 phase measured after 24 hrs by flow cytometry; assay type: functional, cell-based; details: dose 0.1-1 µM
[9] = biological target: T1, Protein cereblon/Cyclin-dependent kinase 4; test: PROTAC activity at CDK4/CRBN in human Jurkat cells assessed as protein degradation after 3 to 24 hrs by Western blot analysis; assay type: cell-based; details: dose 1-1000 nM, time 3-24 hrs
Target sequence in this assay (P11802 2-303 limits assumed): as the sequence (P11802 2-303 limits assumed) above
Target sequence in this assay (Q96SW2 whole entry partner): as the sequence (Q96SW2 whole entry) above

[10] = biological target: Protein cereblon/Cyclin-dependent kinase 7 (Homo sapiens) (UniProt P50613+Q96SW2); test: PROTAC activity at CDK7/CRBN in human Jurkat cells assessed as protein degradation at 1 uM measured after 24 hrs by Western blot analysis; assay type: cell-based
[11] = biological target: T2, Protein cereblon/Cyclin-dependent kinase 6; test: PROTAC activity at CDK6/CRBN in human Jurkat cells assessed as protein degradation at 1 to 1000 nM by Western blot analysis; assay type: cell-based; details: dose 1-1000 nM, time 3-24 hrs, TDE = time-dependent effect
Target sequence in this assay (Q00534 whole entry, looked up): as the sequence (Q00534 whole entry) above
Target sequence in this assay (Q96SW2 whole entry, looked up): as the sequence (Q96SW2 whole entry) above

Jurkat [12] = test: Anti-tumor activity against human Jurkat cells assessed as suppression of p-RB (Ser780) at 1 uM by Western blot analysis; assay type: functional, cell-based
Jurkat [13] = test: Induction of apoptosis in human Jurkat cells assessed as apoptotic cells measured after 24 hrs by Annexin V-FITC/PI staining based analysis; assay type: functional, cell-based; details: dose 0.1-1 µM
[14] = biological target: T2, Protein cereblon/Cyclin-dependent kinase 6; test: PROTAC activity at CDK6/CRBN in human Jurkat cells assessed as protein degradation after 3 to 24 hrs by Western blot analysis; assay type: cell-based; details: dose 1-1000 nM, time 3-24 hrs
Target sequence in this assay (Q00534 whole entry, looked up): as the sequence (Q00534 whole entry) above
Target sequence in this assay (Q96SW2 whole entry, looked up): as the sequence (Q96SW2 whole entry) above

[15] = biological target: Protein cereblon/Cyclin-dependent kinase 8 (Homo sapiens) (UniProt P49336+Q96SW2); test: PROTAC activity at CDK8/CRBN in human Jurkat cells assessed as protein degradation at 1 uM measured after 24 hrs by Western blot analysis; assay type: cell-based
[16] = biological target: T1, Protein cereblon/Cyclin-dependent kinase 4; test: PROTAC activity at CDK4/CRBN in human Jurkat cells assessed as protein degradation at 1 to 1000 nM by Western blot analysis; assay type: cell-based; details: dose 1-1000 nM, time 3-24 hrs, TDE = time-dependent effect
Target sequence in this assay (P11802 2-303 limits assumed): as the sequence (P11802 2-303 limits assumed) above
Target sequence in this assay (Q96SW2 whole entry partner): as the sequence (Q96SW2 whole entry) above

[17] = biological target: T2, Protein cereblon/Cyclin-dependent kinase 6; test: PROTAC activity at CDK6/CRBN in human Jurkat cells assessed as protein degradation at 1 uM after 12 hrs by Western blot analysis; assay type: cell-based
Target sequence in this assay (Q00534 whole entry, looked up): as the sequence (Q00534 whole entry) above
Target sequence in this assay (Q96SW2 whole entry, looked up): as the sequence (Q96SW2 whole entry) above

[18] = biological target: Protein cereblon/Cyclin-dependent kinase 2 (Homo sapiens) (UniProt P24941+Q96SW2); test: PROTAC activity at CDK2/CRBN in human Jurkat cells assessed as protein degradation at 1 uM measured after 24 hrs by Western blot analysis; assay type: cell-based
Jurkat [19] = test: Anti-tumor activity against human Jurkat cells assessed as increase in cleaved caspase-3 level by Western blot analysis; assay type: functional, cell-based; details: dose 1-1000 nM
[20] = biological target: T1, Protein cereblon/Cyclin-dependent kinase 4; test: PROTAC activity at CDK4/CRBN in human Jurkat cells assessed as protein degradation at 1 uM measured after 24 hrs by Western blot analysis; assay type: cell-based
Target sequence in this assay (P11802 2-303 limits assumed): as the sequence (P11802 2-303 limits assumed) above
Target sequence in this assay (Q96SW2 whole entry partner): as the sequence (Q96SW2 whole entry) above

[21] = biological target: T1, Protein cereblon/Cyclin-dependent kinase 4; test: PROTAC activity at CDK4/CRBN in human Jurkat cells assessed as protein degradation at 1 uM after 12 hrs by Western blot analysis; assay type: cell-based
Target sequence in this assay (P11802 2-303 limits assumed): as the sequence (P11802 2-303 limits assumed) above
Target sequence in this assay (Q96SW2 whole entry partner): as the sequence (Q96SW2 whole entry) above

Jurkat [22] = test: Anti-tumor activity against human Jurkat cells assessed as increase in cleaved PARP level by Western blot analysis; assay type: functional, cell-based; details: dose 1-1000 nM
[23] = biological target: Protein cereblon/Cyclin-dependent kinase 5 (Homo sapiens) (UniProt Q00535+Q96SW2); test: PROTAC activity at CDK5/CRBN in human Jurkat cells assessed as protein degradation at 1 uM measured after 24 hrs by Western blot analysis; assay type: cell-based
[24] = biological target: Protein cereblon/Cyclin-dependent kinase 1 (Homo sapiens) (UniProt P06493+Q96SW2); test: PROTAC activity at CDK1/CRBN in human Jurkat cells assessed as protein degradation at 1 uM measured after 24 hrs by Western blot analysis; assay type: cell-based
Chain of Protein cereblon/Cyclin-dependent kinase 1 (Homo sapiens) (P06493 whole entry, looked up): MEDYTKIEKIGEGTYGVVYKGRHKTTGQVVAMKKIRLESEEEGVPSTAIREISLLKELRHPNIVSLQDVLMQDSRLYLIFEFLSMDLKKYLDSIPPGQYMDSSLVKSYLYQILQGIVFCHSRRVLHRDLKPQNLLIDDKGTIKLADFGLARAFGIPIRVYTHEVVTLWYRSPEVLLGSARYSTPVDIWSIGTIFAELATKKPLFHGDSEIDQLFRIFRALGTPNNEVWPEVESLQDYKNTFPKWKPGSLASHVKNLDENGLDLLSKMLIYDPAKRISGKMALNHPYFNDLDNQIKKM
Chain of Protein cereblon/Cyclin-dependent kinase 1 (Homo sapiens) (Q96SW2 whole entry, looked up): as the sequence (Q96SW2 whole entry) above

Chain of Cyclin-dependent kinase 6 (Q00534 whole entry): as the sequence (Q00534 whole entry) above

O=C1CCC(N2C(=O)c3cccc(NCCOCCOCCN4CCN(c5ccc(Nc6ncc7ncc(=O)n(C8CCCC8)c7n6)cc5)CC4)c3C2=O)C(=O)N1 (configuration not stated)
DC50 [1]: 557 nM | DC50 [2]: 5.3 nM | Emax [3]: 53% | Emax [4]: 94%

O=C1CCC(N2C(=O)c3cccc(NC(=O)CCCCCN4CCN(c5ccc(Nc6ncc7ncc(=O)n(C8CCCC8)c7n6)cc5)CC4)c3C2=O)C(=O)N1 (configuration not stated)
DC50 [1]: 14.9 nM | DC50 [2]: 58 nM | Emax [3]: 95% | Emax [4]: 85%

O=c1cnc2cnc(Nc3ccc(N4CCNCC4)cc3)nc2n1C1CCCC1
IC50 [5]: 88 nM | IC50 [6]: 7.7 nM | IC50 (Jurkat [7]): 1470 nM

O=C1CCC(N2C(=O)c3cccc(NC(=O)CCCCCCN4CCN(c5ccc(Nc6ncc7ncc(=O)n(C8CCCC8)c7n6)cc5)CC4)c3C2=O)C(=O)N1 (configuration not stated)
DC50 [1]: > 1000 nM | DC50 [2]: 6.6 nM | Emax [3]: 41% | Emax [4]: 95%

O=C(CCCCN1CCN(c2ccc(Nc3ncc4ncc(=O)n(C5CCCC5)c4n3)cc2)CC1)NCCNc1cccc2c1C(=O)N(C1CCC(=O)NC1=O)C2=O (configuration not stated)
Activity (Jurkat [8]): Dose-Dependent Effect | Activity [9]: Dose-Dependent Effect | Activity [10]: inactive | DC50 [1]: 10.5 nM | Activity [11]: Tde | Activity (Jurkat [12]): Active | DC50 [2]: 2.5 nM | Activity (Jurkat [13]): Dose-Dependent Effect | Activity [14]: Dose-Dependent Effect | Emax [3]: 100% | Activity [15]: inactive | IC50 (Jurkat [7]): 183 nM | Activity [16]: Tde | Activity [17]: 100% | Activity [18]: inactive | Activity (Jurkat [19]): Dose-Dependent Effect | Activity [20]: inactive | Activity [21]: 100% | Activity (Jurkat [22]): Dose-Dependent Effect | Activity [23]: inactive | Activity [24]: inactive | Emax [4]: 96%

O=C(CN1CCN(c2ccc(Nc3ncc4ncc(=O)n(C5CCCC5)c4n3)cc2)CC1)NCCCCNc1cccc2c1C(=O)N(C1CCC(=O)NC1=O)C2=O (configuration not stated)
DC50 [1]: > 1000 nM | DC50 [2]: > 1000 nM | Emax [3]: 14% | Emax [4]: 40%

O=C1CCC(N2C(=O)c3cccc(NCCOCCN4CCN(c5ccc(Nc6ncc7ncc(=O)n(C8CCCC8)c7n6)cc5)CC4)c3C2=O)C(=O)N1 (configuration not stated)
DC50 [1]: 162 nM | DC50 [2]: 93 nM | Emax [3]: 60% | Emax [4]: 91%

CC(=O)c1c(C)c2cnc(Nc3ccc(N4CCNCC4)cn3)nc2n(C2CCCC2)c1=O [PALBOCICLIB]
IC50 (Jurkat [7]): 1500 nM

O=C1CCC(N2C(=O)c3ccc(N4CCN(CC5CCN(C(=O)CN6CCN(c7ccc(Nc8ncc9ncc(=O)n(C%10CCCC%10)c9n8)cc7)CC6)CC5)CC4)cc3C2=O)C(=O)N1 (configuration not stated)
DC50 [1]: 138 nM | DC50 [2]: 2.3 nM | Emax [3]: 68% | Emax [4]: 90%

O=C1CCC(N2C(=O)c3cccc(NC(=O)CCCCCn4cc(CN5CCN(c6ccc(Nc7ncc8ncc(=O)n(C9CCCC9)c8n7)cc6)CC5)nn4)c3C2=O)C(=O)N1 (configuration not stated)
DC50 [1]: > 1000 nM | DC50 [2]: 16.3 nM | Emax [3]: 42% | Emax [4]: 95%

O=C1CCC(N2C(=O)c3ccc(N4CCN(C(=O)CN5CCN(c6ccc(Nc7ncc8ncc(=O)n(C9CCCC9)c8n7)cc6)CC5)CC4)cc3C2=O)C(=O)N1 (configuration not stated)
DC50 [1]: 9.8 nM | DC50 [2]: 3.9 nM | Emax [3]: 75% | Emax [4]: 86%

O=C1CCC(N2C(=O)c3cccc(NC(=O)CCCCCCC(=O)N4CCN(c5ccc(Nc6ncc7ncc(=O)n(C8CCCC8)c7n6)cc5)CC4)c3C2=O)C(=O)N1 (configuration not stated)
DC50 [1]: 434 nM | DC50 [2]: 43.3 nM | Emax [3]: 60% | Emax [4]: 92%
